These results are taken from patent publication US9428500B2, “Alpha-carbolines for the treatment of cancer” (UNIVERSITA' DEGLI STUDI DI MILANO—BICOCCA, priority 2012, dated 2016).

Molecules are shown by their SMILES. Read-outs that look alike come from different tables or passages of the source.

The target of test [1] is wild-type ALK kinase (rALK) (Homo sapiens (Human), UniProt Q9UM73). As to the kind of experiment: ELISA-based in vitro kinase assay, wild-type ALK. Conditions: recombinant ALK, 0.3 mM ATP; read-out: ELISA ALK WT IC50. Format: biochemical. Here is the method: Recombinant 3C protease was used to remove the GST tag. Purified ALK was used to screen inhibitors in the ELISA-based kinase assay, as follows: Nunc-Immuno 96-well plates were incubated overnight at 30° C. with coating solution containing 2 μg of a specific ALK peptide substrate ([…]) in PBS. Wells were then washed with 200 μL of wash buffer (PBS-Tween 0.05%) and incubated with 4% BSA in PBS for at least 2 h at 30° C. […] For inhibitor testing the reaction mix was preincubated with inhibitor or vehicle for 10 min at room temperature before transferring to the ELISA plate. After the reaction, the wells were washed 5 times with 200 uL of wash buffer. Phosphorylated peptide was detected using 100 μL/well of a mouse monoclonal anti-phosphotyrosine antibody (clone 4G10 UpstateBiotech Ltd) diluted 1:2000 in PBS+4% BSA. After 30 min incubation at room temperature the antibody was removed and wells were washed as described above. 100 μL of a secondary antibody (anti-mouse IgG, Horseradish Peroxidase linked whole antibody, Amersham Pharmacia Biotech) diluted 1:1000 in PBS+4% BSA was added to each well and the plate was incubated again for 30 min at room temperature before washing as above. The plate was developed using 100 μL/well TMB Substrate Solution (Pierce) and the reaction was stopped by adding an equal volume of 1M H2SO4. Finally, the absorbance was read at 450 nm using an ELISA plate reader (Bio-Rad).
wild-type ALK kinase (rALK), sequence (Q9UM73 19-1620): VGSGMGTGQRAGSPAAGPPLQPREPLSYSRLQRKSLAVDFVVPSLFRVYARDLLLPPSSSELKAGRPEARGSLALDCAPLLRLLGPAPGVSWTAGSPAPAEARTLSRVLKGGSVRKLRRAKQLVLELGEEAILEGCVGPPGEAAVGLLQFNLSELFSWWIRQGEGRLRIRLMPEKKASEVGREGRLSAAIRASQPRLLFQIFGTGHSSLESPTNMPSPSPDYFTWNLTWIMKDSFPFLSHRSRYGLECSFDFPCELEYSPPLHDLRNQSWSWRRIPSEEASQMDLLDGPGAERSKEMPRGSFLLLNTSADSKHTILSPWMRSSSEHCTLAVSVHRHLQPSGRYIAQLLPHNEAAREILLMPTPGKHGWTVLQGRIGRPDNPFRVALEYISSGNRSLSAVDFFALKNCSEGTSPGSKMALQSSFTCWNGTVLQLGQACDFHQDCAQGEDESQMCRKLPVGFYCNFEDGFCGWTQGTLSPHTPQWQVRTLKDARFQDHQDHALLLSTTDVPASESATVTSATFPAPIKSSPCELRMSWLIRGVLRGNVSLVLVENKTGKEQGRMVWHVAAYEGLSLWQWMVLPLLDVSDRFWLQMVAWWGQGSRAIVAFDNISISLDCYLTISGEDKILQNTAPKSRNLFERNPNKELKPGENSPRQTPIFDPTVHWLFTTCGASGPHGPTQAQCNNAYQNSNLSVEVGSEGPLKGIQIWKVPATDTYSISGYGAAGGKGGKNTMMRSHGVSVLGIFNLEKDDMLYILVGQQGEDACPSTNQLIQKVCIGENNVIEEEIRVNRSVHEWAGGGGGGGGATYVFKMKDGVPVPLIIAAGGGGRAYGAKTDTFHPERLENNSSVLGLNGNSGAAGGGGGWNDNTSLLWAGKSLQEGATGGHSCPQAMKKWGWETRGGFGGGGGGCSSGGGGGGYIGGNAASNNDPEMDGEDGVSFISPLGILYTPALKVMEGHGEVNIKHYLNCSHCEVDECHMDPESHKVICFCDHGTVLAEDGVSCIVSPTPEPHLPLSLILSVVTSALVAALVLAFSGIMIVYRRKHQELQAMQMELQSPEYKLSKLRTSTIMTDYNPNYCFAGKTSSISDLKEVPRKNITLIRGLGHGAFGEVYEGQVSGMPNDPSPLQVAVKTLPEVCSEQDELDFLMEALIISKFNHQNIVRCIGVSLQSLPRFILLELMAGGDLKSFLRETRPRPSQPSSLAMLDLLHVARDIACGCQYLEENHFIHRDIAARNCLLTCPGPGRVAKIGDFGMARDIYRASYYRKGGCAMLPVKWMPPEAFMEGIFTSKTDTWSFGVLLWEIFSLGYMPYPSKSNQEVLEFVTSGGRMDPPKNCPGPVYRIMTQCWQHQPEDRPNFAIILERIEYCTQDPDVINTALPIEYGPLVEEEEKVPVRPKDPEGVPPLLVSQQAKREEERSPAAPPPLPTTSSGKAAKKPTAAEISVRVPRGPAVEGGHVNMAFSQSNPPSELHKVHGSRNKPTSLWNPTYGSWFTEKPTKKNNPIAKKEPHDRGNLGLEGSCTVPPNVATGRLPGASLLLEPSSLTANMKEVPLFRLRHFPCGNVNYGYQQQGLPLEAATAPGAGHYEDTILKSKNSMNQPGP

The subject of test [2] is parental untransformed BaF3 cells. Description: Tritiated thymidine uptake cell proliferation assay, parental BaF3. To be noted: Mus musculus, BaF3; 3H-thymidine uptake, 72 h, medium with IL-3. It counts as cell-based.
For the next test, the system named is NPM/ALK+ Karpas299 cells. Description: NPM/ALK+ Karpas299 tumour growth in SCID mice. Format: in vivo. Conditions: oral gavage, 150 mg/kg twice per day, subcutaneous Karpas299 tumors in SCID mice. Here is the method:
The in vivo studies were approved by the Italian Ministry of Research and by the University internal ethical committee, and were run according to guidelines to reduce animal pain. Ten million NPM/ALK+ Karpas299 cells were injected subcutaneously in the right flank of SCID mice. Ten days later, when the tumors reached the size of 100 mm3 on average, mice were randomized either to control arm, receiving vehicle only (0.5% carboxymethylcellulose and 0.1% Tween80), or to treatment arm, receiving compound R533 by oral gavage, 150 mg/kg twice per day. Tumor size was measured bi-weekly by a caliper. General toxicity was assessed by monitoring weight loss, and by visual inspection for any sign of stress or suffering, including eye closure or bulging, ruffled/dull fur, reduced mobility, drowsiness, diarrhea.

Test [3] concerns BaF3 cells transformed with the oncogenic fusion protein NPM/ALK. Description: cells. To be noted: read-out: BaF3 NPM/ALK WT IC50.
For test [4] the test system is unchanged.

`COc1ccc(Sc2ccnc3[nH]c4ccc(-c5ccc(N6CCN(C)CC6)cc5)cc4c23)cc1` [Example 46, 4-(4-Methoxy-phenylsulfanyl)-6-[4-(4-methyl-piperazin-1-yl)-phenyl]-9H-pyrido[2,3-b]indole]: in test [1], the IC50 came to 5.7 µM. Consider `CN1CCN(c2ccc(-c3ccc4[nH]c5nccc(-c6ccc(Cc7ccccc7)cc6)c5c4c3)cc2)CC1` [Example 16, 4-(4-Benzylphenyl)-6-[4-(4-methylpiperazin-1-yl)-phenyl]-9H-pyrido[2,3-b]indole], for which the IC50 in test [2] was 8700 nM. Also, the “Tumor size (tumour growth curves)” value in the test on NPM/ALK+ Karpas299 cells was “remarkable effect”. Regarding `CN1CCN(c2ccc(-c3ccc4[nH]c5nccc(-c6ccc(N7CCN(C)CC7)cc6)c5c4c3)cc2)CC1` [Example 20, 4,6-Bis-[4-(4-methylpiperazin-1-yl)-phenyl]-9H-pyrido[2,3-b]indole], the figures for the IC50 in test [2], in test [3] and in test [1] were 3600 nM, 520 nM and 10 µM, respectively. Besides, the “Selectivity Index (WT)” value in test [4] worked out at 7. On to `Cc1ccc(Cn2cc(-c3ccnc4[nH]c5ccc(-c6ccc(N7CCN(C)CC7)cc6)cc5c34)nn2)cc1` [Example 47, 4-(1-(4-methylbenzyl)-1H-1,2,3-triazol-4-yl)-6-(4-(4-methylpiperazin-1-yl)phenyl)-9H-pyrido[2,3-b]indole], for which the IC50 in test [1] was determined as 6.8 µM. Turning to `COc1ccccc1C#Cc1ccnc2c1c1cc(-c3ccc(N4CCN(C)CC4)cc3)ccc1n2C` [Example 45, 4-(2-Methoxyphenylethynyl)-9-methyl-6-[4-(4-methylpiperazin-1-yl)-phenyl]-9H-pyrido[2,3-b]indole], the IC50 in test [2] was 2100 nM; in test [3], 1100 nM; in test [1], 3.8 µM. For the same compound, in test [4] (BaF3 parental vs NPM/ALK WT), the “Selectivity Index (WT)” value is 2. Take `COc1ccc(Cc2ccc(-c3ccnc4[nH]c5ccc(-c6ccc(N7CCN(C)CC7)cc6)cc5c34)cc2)c(OC)c1` [Example 26, 4-[4-(2,4-Dimethoxybenzyl)phenyl]-6-[4-(4-methylpiperazin-1-yl)-phenyl]-9H-pyrido[2,3-b]indole]: the IC50 in test [2] was 630 nM. In the case of `C/C(=C\c1ccccc1)c1ccnc2[nH]c3ccc(-c4ccc(N5CCN(C)CC5)cc4)cc3c12` [Example 28, (E)-6-(4-(4-methylpiperazin-1-yl)phenyl)-4-(1-phenylprop-1-en-2-yl)-9H-pyrido[2,3-b]indole], the IC50 in test [2] is 800 nM. `CN1CCN(c2ccc(-c3ccc4[nH]c5nccc(-c6ccc(C(=O)c7ccccc7)cc6)c5c4c3)cc2)CC1` [Example 23, (4-{6-[4-(4-Methylpiperazin-1-yl)-phenyl]-9H-pyrido[2,3-b]indol-4-yl}-phenyl)-phenyl-methanone]: in test [2], the IC50 stood at 2300 nM.

Turning to `C#Cc1ccnc2[nH]c3ccc(-c4ccc(N5CCN(C)CC5)cc4)cc3c12` [Example 44, 4-Ethynyl-6-(4-(4-methylpiperazin-1-yl)phenyl)-9H-pyrido[2,3-b]indole], the IC50 in test [2] was 350 nM; in test [3] it was 170 nM; in test [1] it was 29 µM. In addition, the “Selectivity Index (WT)” value in test [4] was 2.

In the case of `CN1CCN(c2ccc(-c3ccc4[nH]c5nccc(-c6ccc(OCc7ccccc7)cc6)c5c4c3)cc2)CC1` [Example 8, 4-(4-Benzyloxyphenyl)-6-[4-(4-methylpiperazin-1-yl)-phenyl]-9H-pyrido[2,3-b]indole], the IC50 in test [2] worked out at 5000 nM. The same measure, in the same setting: the same measure for `CN1CCN(c2ccc(-c3ccc4[nH]c5nccc(-c6cccc(-c7ccccc7)c6)c5c4c3)cc2)CC1` [Example 17, 4-Biphenyl-3-yl-6-[4-(4-methylpiperazin-1-yl)-phenyl]-9H-pyrido[2,3-b]indole]: 2700 nM; for `CN1CCN(c2ccc(-c3ccc4[nH]c5nccc(/C=C/c6ccc(F)cc6)c5c4c3)cc2)CC1` [Example 13, (E)-4-(2-(4-Fluorophenyl)vinyl)-6-(4-(4-methylpiperazin-1-yl)phenyl)-9H-pyrido[2,3-b]indole]: 7600 nM; for `CN1CCN(c2ccc(-c3ccc4[nH]c5nccc(/C=C/c6ccccc6Cl)c5c4c3)cc2)CC1` [Example 19, (E)-4-(2-(2-Chlorophenyl)vinyl)-6-(4-(4-methylpiperazin-1-yl)phenyl)-9H-pyrido[2,3-b]indole]: 2000 nM. For `COc1ccccc1/C=C(\C)c1ccnc2[nH]c3ccc(-c4ccc(N5CCN(C)CC5)cc4)cc3c12` [Example 27, (E)-4-[1-(2-Methoxyphenyl)-prop-1-en-2-yl]-6-[4-(4-methylpiperazin-1-yl)-phenyl]-9H-pyrido[2,3-b]indole], the IC50 in test [2] came to 2400 nM. On the same count and under the same terms, with `CN1CCN(c2ccc(-c3ccc4[nH]c5nccc(C#Cc6ccccc6C(F)(F)F)c5c4c3)cc2)CC1` [Example 39, 6-[4-(4-Methylpiperazin-1-yl)-phenyl]-4-(2-trifluoromethyl-phenylethynyl)-9H-pyrido[2,3-b]indole] the figure was 1200 nM; with `CN1CCN(c2ccc(-c3ccc4[nH]c5nccc(/C=C/c6ccccc6C(F)(F)F)c5c4c3)cc2)CC1` [Example 11, (E)-6-(4-(4-Methylpiperazin-1-yl)phenyl)-4-(2-(2-(trifluoromethyl)phenyl)vinyl)-9H-pyrido[2,3-b]indole], 1700 nM. Same read-out and setting: with `COc1ccccc1C#Cc1ccnc2[nH]c3ccc(-c4ccc(N5CCN(C)CC5)cc4)cc3c12` [Example 38, 4-(2-Methoxyphenylethynyl)-6-[4-(4-methylpiperazin-1-yl)-phenyl]-9H-pyrido[2,3-b]indole] the figure was 1500 nM; with `Cc1cc(OCc2ccc(-c3ccnc4[nH]c5ccc(-c6ccc(N7CCN(C)CC7)cc6)cc5c34)cc2)ccc1Cl` [Example 12, 4-[4-(4-Chloro-3-methyl-phenoxymethyl)-phenyl]-6-[4-(4-methylpiperazin-1-yl)-phenyl]-9H-pyrido[2,3-b]indole], more than 50000 nM; with `CN1CCN(c2ccc(-c3ccc4[nH]c5nccc(N6CCC(Cc7ccccc7)CC6)c5c4c3)cc2)CC1` [Example 58, 4-(4-benzylpiperidin-1-yl)-6-(4-(4-methylpiperazin-1-yl)phenyl)-9H-pyrido[2,3-b]indole], 3300 nM. Still for that read-out and setting: the same measure for `CN1CCN(c2ccc(-c3ccc4[nH]c5nccc(/C=C/c6ccccc6NS(C)(=O)=O)c5c4c3)cc2)CC1` [Example 29, N-[(E)-2-(2-{6-[4-(4-Methylpiperazin-1-yl)-phenyl]-9H-pyrido[2,3-b]indol-4-yl}-vinyl)-phenyl]-methanesulfonamide]: 680 nM. For the compound `CN1CCN(c2ccc(-c3ccc4[nH]c5nccc(C#Cc6ccc(F)cc6)c5c4c3)cc2)CC1` [Example 40, 4-((4-Fluorophenyl)ethynyl)-6-[4-(4-methylpiperazin-1-yl)-phenyl]-9H-pyrido[2,3-b]indole], the IC50 in test [2] is 920 nM. On the same count and under the same terms, with `COc1cc(C(O)c2ccccc2)c(OC)cc1-c1ccnc2[nH]c3ccc(-c4ccc(N5CCN(C)CC5)cc4)cc3c12` (stereo not drawn) [Example 57, (2,5-dimethoxy-4-(6-(4-(4-methylpiperazin-1-yl)phenyl)-9H-pyrido[2,3-b]indol-4-yl)phenyl)(phenyl)methanol] the figure was 790 nM; with `CN1CCN(c2ccc(-c3ccc4[nH]c5nccc(-c6ccc(Cc7ccccc7)cc6C(F)(F)F)c5c4c3)cc2)CC1` [Example 55, 4-(4-benzyl-2-(trifluoromethyl)phenyl)-6-(4-(4-methylpiperazin-1-yl)phenyl)-9H-pyrido[2,3-b]indole], 5100 nM.
